The values below come from patent publication US12577300B2, “Neutralizing antibodies to human endothelin” (Father Flanagan's Boys' Home Doing Business as Boys Town …, priority 2019, dated 2026).

Data set [1] deals with T1, endothelin A receptor (Mus musculus, UniProt Q61614).
T1 construct: Endothelin A receptors are expressed primarily on mesangial cells; endogenous in cells; host or cells: Alport mice (in vivo)
T1 sequence (Q61614 21-427): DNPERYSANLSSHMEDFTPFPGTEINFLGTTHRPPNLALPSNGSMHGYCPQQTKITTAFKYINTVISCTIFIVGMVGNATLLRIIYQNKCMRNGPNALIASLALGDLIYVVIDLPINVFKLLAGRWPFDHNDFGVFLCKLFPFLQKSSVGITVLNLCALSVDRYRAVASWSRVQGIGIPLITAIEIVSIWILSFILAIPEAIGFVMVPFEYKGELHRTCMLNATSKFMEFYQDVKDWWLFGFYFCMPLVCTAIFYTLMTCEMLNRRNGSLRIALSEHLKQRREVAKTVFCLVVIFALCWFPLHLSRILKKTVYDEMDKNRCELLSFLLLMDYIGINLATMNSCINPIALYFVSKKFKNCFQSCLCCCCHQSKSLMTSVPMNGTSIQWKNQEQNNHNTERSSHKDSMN
The conditions noted are these: Dufek et al. 2016, cited from earlier work.

For data set [2], the target named is T1, endothelin A receptor. Nature of the data set: Sitaxentan treatment of Alport mice. In kind it is in vivo. Here is the method: FIG. 1. […] Alport mice were treated with the indicated dose of Sitaxentan once daily from 2 to 7 weeks of age. Real time RT-PCR analysis for the indicated transcripts was performed on glomerular RNA.
FIGS. 3A and 3B. […] 129-Alport animals were treated with the endothelin A receptor specific blocking agent Sitaxentan from 2 weeks to 7 weeks of age.
FIGS. 4A and 4B. […] In FIG. 4A, urine was collected at the indicated timepoints and analyzed for albumin using an ELISA kit. Albumin measures were normalized to urinary creatinine. […] In FIG. 4B, BUN measures were performed on serum from 7-week-old vehicle or Sitaxentan-treated Alport mice.

The conditions of data set [3]: given once daily; cited from earlier work.
Data set [4] has as its system pro-fibrotic genes, including Snail1. Nature of the data set: QIAGEN mouse fibrosis microarray of glomerular RNA from treated Alport mice. In kind it is in vivo. Here is the method:
FIG. 2. Glomerular RNA from Alport mice treated with vehicle, Sitaxentan, or nAb #7 was analyzed using QIAGEN mouse fibrosis microarray. The data reveal that Sitaxentan (and Ambrisentan) induce a number of pro-fibrotic genes, including Snail1, which is known to play a key role in promoting renal fibrosis (Grande et al., 2015, Nat Med; 21(9):989-97). […] The data is consistent with aberrant signaling activation by classic small molecule ETAR antagonists that results in pro-fibrotic effects, defining a clear potential advantage of the biologic over small molecule approach.
Glomerular RNA from sitaxentan-treated and neutralizing antibody-treated mice was analyzed using QIAGEN mouse fibrosis microarrays.

Data set [5] addresses T1, endothelin A receptor. Nature of the data set: Sitaxentan treatment of Alport mice. In kind it is in vivo. Conditions: 30 mg/kg once daily.
In the next data set the target is T2, ACE (Mus musculus, UniProt P09470).
T2 construct: host or cells: 129 Sv autosomal Alport mice (in vivo)
T2 sequence (P09470 35-1312): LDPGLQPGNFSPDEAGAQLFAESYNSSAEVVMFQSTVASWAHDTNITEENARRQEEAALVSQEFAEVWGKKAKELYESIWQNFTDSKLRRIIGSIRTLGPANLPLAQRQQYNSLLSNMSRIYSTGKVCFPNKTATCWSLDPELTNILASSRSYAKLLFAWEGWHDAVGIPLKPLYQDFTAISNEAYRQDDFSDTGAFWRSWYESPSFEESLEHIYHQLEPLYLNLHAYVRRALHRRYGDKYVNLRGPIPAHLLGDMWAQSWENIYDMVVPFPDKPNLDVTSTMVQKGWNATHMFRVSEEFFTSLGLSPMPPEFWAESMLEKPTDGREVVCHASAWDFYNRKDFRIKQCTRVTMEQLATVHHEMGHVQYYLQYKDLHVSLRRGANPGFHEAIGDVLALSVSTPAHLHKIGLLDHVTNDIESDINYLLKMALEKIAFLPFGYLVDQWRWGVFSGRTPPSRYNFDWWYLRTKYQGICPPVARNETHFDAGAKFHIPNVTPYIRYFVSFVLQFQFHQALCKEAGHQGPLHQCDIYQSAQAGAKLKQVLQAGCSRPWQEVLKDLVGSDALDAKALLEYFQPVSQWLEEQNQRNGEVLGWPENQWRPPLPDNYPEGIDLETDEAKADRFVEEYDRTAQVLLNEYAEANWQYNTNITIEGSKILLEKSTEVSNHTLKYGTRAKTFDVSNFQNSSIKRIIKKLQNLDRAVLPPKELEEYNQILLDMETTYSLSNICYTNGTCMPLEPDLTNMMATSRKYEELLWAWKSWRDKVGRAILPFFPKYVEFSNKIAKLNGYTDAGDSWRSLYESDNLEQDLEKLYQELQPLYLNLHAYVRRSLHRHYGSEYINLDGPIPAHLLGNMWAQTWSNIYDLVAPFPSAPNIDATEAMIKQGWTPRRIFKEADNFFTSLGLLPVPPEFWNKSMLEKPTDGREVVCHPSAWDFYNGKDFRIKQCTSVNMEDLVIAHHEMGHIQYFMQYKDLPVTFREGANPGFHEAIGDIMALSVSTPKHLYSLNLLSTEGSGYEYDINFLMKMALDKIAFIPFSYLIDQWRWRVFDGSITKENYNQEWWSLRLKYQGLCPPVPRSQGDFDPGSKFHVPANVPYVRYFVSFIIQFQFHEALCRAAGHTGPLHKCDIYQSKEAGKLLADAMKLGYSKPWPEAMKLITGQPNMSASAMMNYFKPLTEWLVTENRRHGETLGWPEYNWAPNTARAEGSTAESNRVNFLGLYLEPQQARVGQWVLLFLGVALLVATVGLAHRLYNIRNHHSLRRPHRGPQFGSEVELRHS
Conditions: cited from earlier work.

The target in a further data set is T3, RAC1/CDC42 Rho GTPases (Mus musculus, UniProt P63001).
T3 construct: host or cells: Alport mice (in vivo)
The conditions noted are these: Zallocchi et al. 2013; cited from earlier work.

As for `Cc1cc2c(cc1CC(=O)c1sccc1S(=O)(=O)Nc1onc(C)c1Cl)OCO2` [Sitaxentan], the blood pressure entry at endothelin A receptor [1] (129 Sv autosomal Alport mouse model) is “no effect on blood pressure”. Moreover, the increase in lifespan at endothelin A receptor [1] (Alport mice) is listed as 20%. At endothelin A receptor [1], the “GBM damage vs vehicle-treated Alport mice” value was “significantly reduced GBM damage”. For the same molecule, on endothelin A receptor [2] (5 mg/kg), the therapeutic effect result was “little to no significant therapeutic effect”. Also, on endothelin A receptor [2] (30 mg/kg dose), the BUN result was “not statistically different from vehicle treated Alport mice”, the fibrosis scores entry was “not statistically different from vehicle treated Alport mice”, the glomerulosclerosis scores result is listed as “not statistically different from vehicle treated Alport mice” and the proteinuria entry was “not statistically different from vehicle treated Alport mice”. On endothelin A receptor [2] (7-week-old Alport mice), the “GBM dysmorphology (TEM)” value was “normalized”. For the same molecule, the “serum BUN levels” value on endothelin A receptor [2] (7-week-old mice) is recorded as “reduces”. In addition, the “GBM laminin α2 deposition” value on endothelin A receptor [2] (129 Sv/J autosomal Alport mice) is “greatly reduced”. For the same molecule, the “age at which measurable urinary albumin was first detected” value at endothelin A receptor [2] (albumin ELISA normalized to urinary creatinine) is reported as 6 weeks of age. Also, on endothelin A receptor [2] (increasing doses above 10 mg/kg), the “renal disease (renotoxicity)” value is on record as “exacerbated renal disease”. The “infiltration of glomerular capillaries with mesangial filopodia” value on endothelin A receptor [2] (integrin α8 immunopositivity) is reported as “greatly reduced”. In addition, on endothelin A receptor [2] (low dose 10 mg/kg once daily, 2 to 7 weeks of age), the Alport pathogenesis entry is listed as “ameliorated Alport pathogenesis”. The “glomerular mRNA expression of cytokines and metalloproteinases (MMP-9, MMP-10, MMP-12, MCP-1, IL-6)” value on endothelin A receptor [2] (real time RT-PCR) is on record as “reduced to near control levels”. At endothelin A receptor [2] (treated 2 to 7 weeks of age), the “% glomerulosclerosis” value is “reduced to near control levels”; the fibrosis scores entry is listed as “reduced to near control levels”; the “onset and progression of proteinuria” value is recorded as “significantly delays”. In addition, the half-life in mice in data set [3] is 6 h. The “induction of pro-fibrotic / pro-inflammatory genes incl. Snail1 in glomeruli” value in data set [4] is “markedly inducing”. Also, the lifespan vs vehicle result at endothelin A receptor [5] is “shorter lifespan than vehicle treated Alport mice”.

Take `COC(c1ccccc1)(c1ccccc1)[C@H](Oc1nc(C)cc(C)n1)C(=O)O` [Ambrisentan]: the half-life in mice in data set [3] is 6 h.

As to `CCOC(=O)[C@H](CCc1ccccc1)N[C@@H](C)C(=O)N1[C@H](C(=O)O)C[C@@H]2CCC[C@@H]21` [ramipril], the “degree of GBM damage” value at ACE (Gross et al. 2003) is recorded as “comparable to untreated Alport mice”. Besides, the lifespan entry on ACE (administered before onset of proteinuria, Gross et al. 2003) is “doubled”. The blood pressure result on ACE (mouse, in vivo) was “reduces blood pressure”.

Take `CCN(CC)CCCC(C)Nc1nc(C)cc(Nc2ccc3nc(C)cc(N)c3c2)n1` (stereo not drawn) [NCS 23766]: the “laminin 211 deposition in the Alport GBM” value at RAC1/CDC42 Rho GTPases was “largely blocked”.
